Test results as given in patent US20070276103A1, “Fluorinated Surfactants” (3M Innovative Properties Company, priority 2006, published 2007).
Read-outs that look alike come from different tables or passages of the source.

How the values were obtained:
[1] = rat, in vivo, po
Method: (§1) The perfluorinated and partially fluorinated carboxylates were evaluated for urinary clearance using a pharmacokinetic study in rats. The goal was to measure the total amount of parent compound eliminated via urinary output and estimate the rate of elimination.
(§2) The study utilized male Sprague Dawley rats, 6 to 8 weeks of age, and approximately 200 to 250 g body weight at study onset. The test compounds of Table 2 were administered at a dose of 73 micro Moles per kg body weight in rats (N=3 animals per tested compound). All test compounds were prepared in sterile deionized water and given to rats via oral gavage. After test compound administration, the rats were housed individually in metabolism cages for urine collection: 0 to 6 hours, 6 to 24 hours, 24 to 48 hours and 72 to 96 hours. Animals were observed throughout the study for clinical signs of toxicity. Gross necropsy was performed at the termination of each study (96 hours post-dose) with sera and liver samples being retained from each animal.
(§3) The concentration of the parent compound or metabolites thereof were quantitatively measured via fluorine NMR on each urine sample for each animal at each time point based on internally added standards.
(§4) In Table 2, T1/2 is the time required for the amount of a particular substance in a biological system to be reduced to one half of its value by biological processes when the rate of removal is approximately exponential. In these examples the value of T1/2 is calculated by exponential least squares curve fitting (y=AeBX and T1/2=0.693/B) where y represents the concentration of analyte in urine and x represents time in hours.

[2] = Determination of bio-accumulation: urinary clearance pharmacokinetic study in rats; conditions: male Sprague Dawley rats, 73 micro Moles per kg, oral gavage; for Compound-related Effects: clinical signs of toxicity and gross necropsy at 96 hours post-dose; for % Recovery (96 h): recovery of compound in urine 96 h post-dose; for T ½: renal (urinary) elimination half-life, parent compound in urine by fluorine NMR, exponential least squares curve fitting
Method: as §1, §2, §3, §4

SMILES | Compound-related Effects [1] | Compound-related Effects [2] | % Recovery (96 h) [2] | T ½ [2]
N.O=C(O)C(F)(F)OC(F)(F)C(F)(OC(F)(F)C(F)(F)C(F)(F)F)C(F)(F)F (centres unmarked) [Example C2, CF3CF2CF2OCF(CF3)CF2OCF2COONH4] | Hepatomegaly | – | – | –
N.O=C(O)C(F)(F)C(F)(F)OC(F)(F)C(F)(F)C(F)(F)C(F)(F)F [Example 1, C4F9—O—CF2—CF2—COONH4] | – | Hepatomegaly | 42% | 1.29 days
N.O=C(O)C(F)(F)C(F)(F)C(F)(F)C(F)(F)C(F)(F)OC(F)C(F)(F)F (centres unmarked) [Example 3, CF3—CFH—O—(CF2)5—COONH4] | Hepatomegaly | – | – | –
N.O=C(O)C(F)(F)C(F)(F)C(F)(F)C(F)(F)C(F)(F)C(F)(F)C(F)(F)F [Example C1, CF3(CF2)6COONH4] | – | Hepatomegaly | 6% | ~22.9 days
